Experimental data taken from US8642516B2, “Chemically-defined arrays for screening cell-substrate interactions” (Wisconsin Alumni Research Foundation, priority 2012, dated 2014).

Experiments:
HUVEC = HUVEC proliferation (normalized cell number C72/C0) on SAM array spots presenting GRGDSP; assay type: cell-based, human; conditions: HUVECs, 72 hours
Protocol: For cell assays on SAM arrays, HUVECs or hMSCs were removed from plastic culture plates using a 0.05% trypsin solution, resuspended in media, and seeded onto SAM arrays in sterile polystyrene Petri dishes. After allowing cells to attach for ˜1 hour in a humidified incubator at 37° C. and 5% CO2, arrays were dipped in warm media to remove loosely attached cells and then transferred to a rectangular multidish (Thermo Scientific/Nunc, Rochester, N.Y.) with warm media and imaged ˜4 hours later serving as “0 hr.” For the initial time point and subsequent time-lapse imaging, arrays were placed on an incubated stage and each array spot was imaged every 15 minutes for 72 hours. […]
Relative cell attachment at 0 hrs was quantified by counting the number of attached cells per spot and normalizing cell numbers to maximal attachment conditions. Normalized cell number was calculated by dividing the number of cells per spot at 72 hours (C72) to the cell number observed on the same spot at 0 hrs (C0). Relative proliferation was determined by dividing normalized cell numbers at 72 hours by the maximum average normalized cell number observed across GRGDSP density conditions. Similarly, relative spreading was determined by dividing projected cell areas to the maximum average projected cell area observed across GRGDSP density conditions. […]

hMSC = assay: Alkaline phosphatase activity staining of hMSCs on SAM arrays; assay type: cell-based, human; conditions: high GRGDSP density SAM spots, 7 days
Text: In this SAM array approach, each spot was designed to contain the same total molar density (mol/cm^2) of peptide from spot to spot. Therefore, control over individual peptide density was achieved by mixing scrambled BR-BP and HPG-BP and mutant GRGESP (SEQ ID NO:19) peptides with functional BR-BP, HPG-BP or GRGDSP (SEQ ID NO:18) peptides, respectively. Therefore, in a typical SAM array, SAMs were locally formed within spots using an alkanethiolate mixture of 95% HS—C11-EG3-OH and 5% HS—C11-EG6-COOH to create substrates with a total of 5% carboxylate groups for peptide conjugation. Here, “X %” refers to the mole percent of alkanethiolate present during SAM formation and subsequently the approximate amount of an alkanethiolate present on the surface after SAM formation. To regulate the density of active peptide present in each spot, mutant and scramble versions of peptides were included during peptide conjugation. […] As mentioned previously, peptide concentrations were easily measured using UV/Vis since all peptides either contained residues that absorbed strongly at 280 nm, or were engineered to contain tryptophan residues in the poly-glycine tail. […]

Substance: GRGDSP
- maximum normalized cell number (C72/C0) (HUVEC; across GRGDSP densities): 1.6
- proliferation (HUVEC; below 0.06% GRGDSP): no proliferation
- staining for alkaline phosphatase activity (hMSC): increased staining for alkaline phosphatase activity
